The values that follow come from ChEMBL document CHEMBL1201862, “PubChem BioAssay data set” (2004).

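Interpolation was linear, between the two tested concentrations surrounding the appropriate level; five concentrations were tested over 48 hours in 96-well plates. At the GI50, growth is halved.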 Active and inactive are the calls of the source. Rule as the data show it: active = GI50 up to about 1.1 µM and inactive = higher. Bounds are passed on as bounds.

Some test systems named below: A549; SNB-19; U-251; HCT-15; OVCAR-8; TK-10; SK-MEL-28; SK-OV-3; A498; RXF 393; 786-0; SNB-75; UO-31; NCI/ADR-RES; EKVX; MDA-MB-435; KM12; PC-3; MDA-MB-231; NCI-H522.
Assay in all cases: NCI tumour cell line growth inhibition, 48 h

Consider `COc1cc(/C=C2\CCC(C)C3=C(c4cc(OC)c(OC)c(OC)c4)C(C#N)=C(N)OC32)cc(OC)c1OC` (stereo unspecified), for which the GI50 in the test with A549 is 3.46 µM (inactive); in the test on SNB-19, 11.6 µM (inactive); in the test on U-251, 3.08 µM (inactive); in the test with HCT-15, 2.08 µM; in the test with OVCAR-8, 3.3 µM (inactive); in the test on TK-10, 4.21 µM (inactive). The GI50 with SK-MEL-28 is 2.85 µM (inactive); in the test on SK-OV-3, 5.32 µM (inactive); in the test on A498 it was 4 µM (inactive); in the test on RXF 393, 1.65 µM (inactive); in the test on 786-0, 1.95 µM (inactive); in the test on SNB-75 it was 1.36 µM (inactive). Moreover, the GI50 in the test with UO-31 was 3.92 µM (inactive); in the test with NCI/ADR-RES, 3.74 µM (inactive); with EKVX it was 3.08 µM (inactive); in the test on MDA-MB-435 it was 2.76 µM (inactive); in the test with KM12, 3.86 µM (inactive); with PC-3 it was 1.83 µM (inactive). For the same compound, the results for the GI50 in the test on MDA-MB-231 and with NCI-H522 were 2.45 µM (inactive) and 2.42 µM (inactive), respectively.
For the compound `[O-][Cl+3]([O-])([O-])O.c1ccc(C2=NN2c2ccccc2)cc1`, the GI50 in the test with A549 was 7.96 µM (inactive); in the test with SNB-19, > 100 µM (inactive); in the test on U-251, > 100 µM (inactive); in the test on HCT-15 it was 7.89 µM; with OVCAR-8, > 100 µM (inactive); in the test on TK-10, > 100 µM (inactive). The GI50 with SK-MEL-28 was > 100 µM (inactive); with SK-OV-3 it was > 100 µM (inactive); in the test on A498, > 100 µM (inactive); in the test on RXF 393, > 100 µM (inactive); in the test with SNB-75, > 100 µM (inactive); with UO-31, 15.9 µM (inactive). Moreover, the GI50 is > 100 µM (inactive) in the test with NCI/ADR-RES; 92.7 µM (inactive) in the test on EKVX; 2.83 µM (inactive) in the test with MDA-MB-435; 7.41 µM (inactive) in the test with KM12; 6.7 µM (inactive) in the test with PC-3; > 100 µM (inactive) in the test on MDA-MB-231. Moreover, in the test on NCI-H522, the GI50 is 35.3 µM (inactive).
In the case of `c1ccc2c(CN3CCN(Cc4c[nH]c5ccccc45)CC3)c[nH]c2c1`, the GI50 with SNB-19 is 21.6 µM (inactive); in the test on U-251, 15.9 µM (inactive); in the test on HCT-15, 20 µM; with OVCAR-8, 19 µM (inactive); in the test with TK-10, 15.6 µM (inactive); with SK-MEL-28 it was 17.9 µM (inactive). In addition, the GI50 was 21.4 µM (inactive) in the test on SK-OV-3; 14.4 µM (inactive) in the test with A498; 14.3 µM (inactive) in the test with RXF 393; 16.1 µM (inactive) in the test on 786-0; 13.3 µM (inactive) in the test on SNB-75; 14.6 µM (inactive) with UO-31. The GI50 in the test with NCI/ADR-RES was 23 µM (inactive); in the test on EKVX, 13.3 µM (inactive); in the test with MDA-MB-435, 16.2 µM (inactive); with KM12, 16.8 µM (inactive); in the test on PC-3 it was 18.6 µM (inactive); in the test on MDA-MB-231, 14.9 µM (inactive). Besides, the GI50 in the test with NCI-H522 is 16.5 µM (inactive).
In the case of `COc1ccc2c(c1)C(OC)C1c3c(cc4c(c3-2)OCO4)CCN1C` (stereo unspecified), the GI50 is 2.92 µM (inactive) with A549; 3.12 µM (inactive) in the test with SNB-19; 3.67 µM (inactive) in the test with U-251; 2.13 µM in the test with HCT-15; 2.5 µM (inactive) in the test on OVCAR-8; 4.53 µM (inactive) in the test on TK-10. For the same compound, the GI50 was 3.88 µM (inactive) in the test with SK-MEL-28; 4.5 µM (inactive) with SK-OV-3; 1.82 µM (inactive) in the test with A498; 2.06 µM (inactive) with RXF 393; 3.64 µM (inactive) in the test on 786-0; 4.05 µM (inactive) with SNB-75. In addition, the GI50 is 1.67 µM (inactive) in the test with UO-31; 1.87 µM (inactive) in the test with NCI/ADR-RES; 4.34 µM (inactive) in the test with EKVX; 3.34 µM (inactive) in the test with MDA-MB-435; 4.34 µM (inactive) with KM12; 2.6 µM (inactive) with PC-3. The GI50 with MDA-MB-231 is 2.44 µM (inactive); in the test on NCI-H522 it was 1.56 µM (inactive).
Consider `CC(=O)c1cccc(NC(=O)/C(=N\NC(=S)NN)C2C(=O)Nc3ccccc3[S+]2[O-])c1` (stereo unspecified), for which the GI50 with A549, in the test on SNB-19, in the test with U-251, in the test with OVCAR-8, in the test on TK-10 and in the test on SK-MEL-28 was > 100 µM (inactive) throughout. For the same compound, the GI50 in the test on SK-OV-3, in the test on A498, in the test on RXF 393, with 786-0, with SNB-75 and in the test on UO-31 was > 100 µM (inactive) each time. The GI50 with NCI/ADR-RES was > 100 µM (inactive); in the test with EKVX it was 39.1 µM (inactive); with MDA-MB-435, > 100 µM (inactive); in the test on KM12 it was > 100 µM (inactive); in the test with PC-3 it was > 100 µM (inactive); in the test with MDA-MB-231, > 100 µM (inactive). Moreover, in the test on NCI-H522, the GI50 is > 100 µM (inactive).
For `CCOC1Oc2ccccc2-c2nc(N)ncc21` (stereo unspecified), the GI50 is 45.8 µM (inactive) in the test with A549; > 100 µM (inactive) with SNB-19; 65.6 µM (inactive) in the test on U-251; 14 µM in the test with HCT-15; 61.9 µM (inactive) in the test on OVCAR-8; 33.2 µM (inactive) in the test on TK-10. Moreover, the GI50 was > 100 µM (inactive) in the test on SK-OV-3; 22.7 µM (inactive) in the test on A498; 37.7 µM (inactive) in the test on RXF 393; 58.7 µM (inactive) in the test on 786-0; 34 µM (inactive) in the test with SNB-75; 43.5 µM (inactive) in the test on UO-31. For the same compound, the GI50 in the test with NCI/ADR-RES is 39.7 µM (inactive); with EKVX, 45.1 µM (inactive); in the test with MDA-MB-435, 21.7 µM (inactive); in the test on KM12, 39.4 µM (inactive); with PC-3, 41.5 µM (inactive); in the test with MDA-MB-231 it was 99.3 µM (inactive). The GI50 in the test on NCI-H522 is 23.4 µM (inactive).
Consider `c1ccc(C(=NNc2cnc3ccccc3n2)c2ccccn2)cc1`, for which the GI50 is 3.15 µM (inactive) in the test with A549; 6.43 µM (inactive) in the test with SNB-19; 2.31 µM (inactive) in the test on U-251; 0.424 µM with HCT-15; 0.352 µM (active) in the test with OVCAR-8; 12.3 µM (inactive) in the test on SK-MEL-28. Moreover, the GI50 in the test with SK-OV-3 is 3.78 µM (inactive); with A498 it was 20.9 µM (inactive); in the test with RXF 393, 7.59 µM (inactive); in the test on 786-0, 1.38 µM (inactive); in the test on SNB-75, 5.85 µM (inactive); with UO-31, 0.76 µM (active). Further, the GI50 with NCI/ADR-RES was 0.494 µM (active); in the test with EKVX it was 0.269 µM (active); in the test on MDA-MB-435, 3.96 µM (inactive); in the test with KM12 it was 4.08 µM (inactive); in the test on PC-3, 2.56 µM (inactive); in the test on MDA-MB-231, 1 µM (active). In the test on NCI-H522, the GI50 was 0.419 µM (active).
For the compound `COC(=N)c1ncn(Cc2ccccc2)c1N`, the GI50 in the test with A549 is > 100 µM (inactive); in the test on SNB-19 it was > 100 µM (inactive); with U-251, > 100 µM (inactive); in the test with HCT-15 it was above 100 µM; in the test with OVCAR-8, > 100 µM (inactive); with TK-10 it was > 100 µM (inactive). The GI50 in the test on SK-MEL-28, with SK-OV-3, in the test with A498, in the test on RXF 393, with 786-0 and with SNB-75 was > 100 µM (inactive) each time. Moreover, the GI50 in the test with NCI/ADR-RES, in the test with EKVX, in the test with MDA-MB-435, in the test with KM12, with PC-3 and with MDA-MB-231 was > 100 µM (inactive) each time. Moreover, in the test on NCI-H522, the GI50 was > 100 µM (inactive).
`CC1=CC(=O)N(n2c(C)n[nH]c2=O)C1=O`: the GI50 in the test on A549 is > 100 µM (inactive); in the test with SNB-19, > 100 µM (inactive); with U-251, > 100 µM (inactive); in the test on HCT-15 it was above 100 µM; with OVCAR-8, > 100 µM (inactive); with TK-10, > 100 µM (inactive). The GI50 in the test on SK-OV-3, in the test with A498, in the test with RXF 393, in the test with 786-0, with UO-31 and in the test with NCI/ADR-RES was > 100 µM (inactive) each time. For the same compound, the GI50 in the test with EKVX, with MDA-MB-435, in the test with KM12, in the test on PC-3, in the test on MDA-MB-231 and in the test with NCI-H522 was > 100 µM (inactive) throughout.
As to `CCC1(C)N=c2c(ncn2N=C(C)C)=C(C(N)=O)N1` (stereo unspecified), the GI50 is > 100 µM (inactive) with A549; > 100 µM (inactive) in the test on SNB-19; > 100 µM (inactive) in the test with U-251; above 100 µM in the test with HCT-15; > 100 µM (inactive) with OVCAR-8; > 100 µM (inactive) in the test on TK-10. Besides, the GI50 in the test on SK-MEL-28, in the test on SK-OV-3, in the test with A498, with RXF 393, in the test with 786-0 and in the test on SNB-75 was > 100 µM (inactive) in each case. Further, the GI50 was > 100 µM (inactive) in the test on NCI/ADR-RES; > 100 µM (inactive) in the test with EKVX; > 100 µM (inactive) in the test on MDA-MB-435; 22.6 µM (inactive) in the test on KM12; > 100 µM (inactive) in the test with PC-3; > 100 µM (inactive) in the test on MDA-MB-231. For the same compound, the GI50 in the test with NCI-H522 is > 100 µM (inactive).
With `Br[Se]c1ccccn1`, the GI50 with A549 was 21.6 µM (inactive); in the test on SNB-19, 12.4 µM (inactive); in the test on U-251, 15.6 µM (inactive); in the test with HCT-15, 19 µM; in the test on OVCAR-8, 19.6 µM (inactive); in the test with TK-10 it was 20.2 µM (inactive). Further, the GI50 is 19.6 µM (inactive) in the test on SK-MEL-28; 20.5 µM (inactive) in the test with SK-OV-3; 17.9 µM (inactive) in the test with A498; 17.2 µM (inactive) with RXF 393; 18.2 µM (inactive) in the test on 786-0; 17 µM (inactive) in the test with SNB-75. Further, the GI50 in the test on UO-31 was 17.1 µM (inactive); with NCI/ADR-RES it was 26.1 µM (inactive); in the test on EKVX it was 17.6 µM (inactive); in the test with MDA-MB-435, 17.3 µM (inactive); in the test with KM12 it was 17.3 µM (inactive); in the test with PC-3, 16.4 µM (inactive). Moreover, the GI50 is 17.7 µM (inactive) in the test with MDA-MB-231 and 16.4 µM (inactive) with NCI-H522.
